Where two headings read alike, the source gives them in different places.
Tests used:
[1] = target: T1, PI3Kβ (Homo sapiens, UniProt P42338); assay: PI3Kβ activity inhibition (ADP-Glo); type: biochemical; details: Table 1, graded
T1 construct: purchased Millipore 14-603-K
Method: (§1) Detecting the inhibition capability of the compound to PI3Kβ and PI3Kγ activities with ADP-Glo (purchased from Promege Company; Catalog No.: v9102/3). […] The reaction system also comprises substrates as PIP2 and ATP. The reaction buffer system comprises 50 mM HEPES, 3 mM MgCl2, 1 mM EGTA, 100 mM NaCl, 0.03% CHAPS and 2 mM DTT. The pH value of the reaction buffer is 7.5. […] Mixing the system evenly for incubation under ambient temperature for 1 h; getting a new 384 well plate and transferring 5 μL reaction liquid from the each well of original 384 well plate to the corresponding wells of the new 384 well plate; adding 5 μL ADP-Glo which has been preheated to ambient temperature into each new reaction well to terminate the reaction; oscillating it slowly in dark place for 40 min's incubation after it is mixed evenly; adding 10 μL testing liquid in each reaction well, oscillating it for 1 min to mix evenly and incubating it for 1 h, then measuring the fluorescence intensity with a microplate reader and analyzing the result data with the software GraphPad Prism.
(§2) Calculating the value of IC50 as per the formula: Y=background data+(top data−background data)/(1+10^((Log IC50−X)*rate of curve))
(§3) Where, Y refers to the inhibition ratio (%) and X refers to the compound concentration.

[2] = target: T2, PI3Kγ (Homo sapiens, UniProt P48736); assay: PI3Kγ activity inhibition (ADP-Glo); type: biochemical; details: Table 1, graded
T2 construct: purchased Invitrogen PR8641C
T2 sequence (P48736 whole entry): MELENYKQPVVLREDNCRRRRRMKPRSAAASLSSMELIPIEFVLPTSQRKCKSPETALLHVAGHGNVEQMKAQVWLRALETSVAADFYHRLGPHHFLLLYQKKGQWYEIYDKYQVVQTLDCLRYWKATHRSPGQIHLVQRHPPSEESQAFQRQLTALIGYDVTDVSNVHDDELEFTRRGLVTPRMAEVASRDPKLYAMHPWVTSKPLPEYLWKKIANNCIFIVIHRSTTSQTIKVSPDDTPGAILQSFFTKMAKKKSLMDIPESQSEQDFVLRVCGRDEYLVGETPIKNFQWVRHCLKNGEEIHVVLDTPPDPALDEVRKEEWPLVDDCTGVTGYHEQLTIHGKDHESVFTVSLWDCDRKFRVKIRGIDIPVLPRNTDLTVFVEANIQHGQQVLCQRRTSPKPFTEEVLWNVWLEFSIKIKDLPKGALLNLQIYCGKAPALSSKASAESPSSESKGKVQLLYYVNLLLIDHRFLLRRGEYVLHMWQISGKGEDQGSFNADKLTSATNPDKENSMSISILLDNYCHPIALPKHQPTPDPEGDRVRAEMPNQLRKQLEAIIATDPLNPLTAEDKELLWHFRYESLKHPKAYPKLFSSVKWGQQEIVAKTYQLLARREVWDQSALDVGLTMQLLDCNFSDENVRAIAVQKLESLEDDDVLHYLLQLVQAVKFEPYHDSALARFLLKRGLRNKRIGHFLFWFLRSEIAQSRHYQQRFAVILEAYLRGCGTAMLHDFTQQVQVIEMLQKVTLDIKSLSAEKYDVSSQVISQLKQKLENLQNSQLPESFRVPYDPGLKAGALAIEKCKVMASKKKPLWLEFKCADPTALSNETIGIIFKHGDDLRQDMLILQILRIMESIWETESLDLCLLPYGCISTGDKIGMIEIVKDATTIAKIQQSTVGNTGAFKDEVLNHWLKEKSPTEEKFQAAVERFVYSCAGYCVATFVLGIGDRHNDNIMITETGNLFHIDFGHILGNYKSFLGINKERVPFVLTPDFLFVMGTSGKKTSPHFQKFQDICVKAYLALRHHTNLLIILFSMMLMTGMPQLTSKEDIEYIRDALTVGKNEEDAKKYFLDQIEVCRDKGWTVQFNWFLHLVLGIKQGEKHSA
Method: as §1, §2, §3

[3] = tested on: MV4-11 cells (acute myeloid leukemia); assay: Cell proliferation inhibition, MV4-11 (cck-8); type: cell-based; details: Homo sapiens
Method: (§4) The tumor cell lines are purchased from American Type Culture Collection (ATCC) and cultivated to the status of logarithmic growth as per the cultural method recommended by ATCC. The cells in logarithmic phase are spread on a 96 well plate as per 2000-3000/well; as for anchorage-dependent cells, the compound should be added in the test wells at certain concentration for incubation for 96 h after cell adherence. Determining cell proliferation activities with method MTT for tumor cells representing solid tumor model and with method cck-8 for tumor cells representing hematologic tumor model, and analyzing the result data with the software GraphPad Prism.
(§5) Calculating the value of IC50 as per the formula: Y=background data+(top data−background data)/(1+10^((Log IC50−X)*rate of curve)). Where, Y refers to the inhibition ratio (%) and X refers to the compound concentration.

[4] = target: T3, HDAC1 (Homo sapiens, UniProt Q13547); assay: In vitro HDAC1 enzymatic activity inhibition (Lys-Ac-AMC substrate); type: biochemical
T3 construct: purchased BPS Bioscience
T3 sequence (Q13547 whole entry, species assumed): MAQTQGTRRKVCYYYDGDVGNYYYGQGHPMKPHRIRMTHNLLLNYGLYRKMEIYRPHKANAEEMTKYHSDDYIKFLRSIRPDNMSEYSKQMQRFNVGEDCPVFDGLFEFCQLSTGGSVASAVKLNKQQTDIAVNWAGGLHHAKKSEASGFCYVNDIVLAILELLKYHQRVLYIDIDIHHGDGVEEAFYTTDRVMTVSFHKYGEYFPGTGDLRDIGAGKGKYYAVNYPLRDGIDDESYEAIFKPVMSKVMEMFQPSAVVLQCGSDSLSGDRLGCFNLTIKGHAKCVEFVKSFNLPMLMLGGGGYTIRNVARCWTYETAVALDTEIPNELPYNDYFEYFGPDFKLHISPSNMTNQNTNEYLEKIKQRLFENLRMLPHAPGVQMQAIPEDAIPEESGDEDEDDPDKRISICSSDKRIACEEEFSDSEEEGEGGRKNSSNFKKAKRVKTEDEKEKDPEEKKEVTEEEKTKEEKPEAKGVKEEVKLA
Method in brief: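 Fluorogenic Lys-Ac-AMC deacetylation with trypsin development in modified Tris buffer pH 7.0; compound preincubated with enzyme 15 min at ambient temperature before substrate addition. Final HDAC1 6 nM, trypsin 0.05 μM, Ac-peptide 8 μM. IC50 from four-parameter fit of % inhibition versus concentration.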

[5] = target: T4, PI3Kδ (Homo sapiens, UniProt O00329); assay: PI3Kδ activity inhibition (Kinase-Glo); type: biochemical; details: Table 1, graded
T4 construct: purchased Millipore 14-604-K
T4 sequence (O00329 whole entry): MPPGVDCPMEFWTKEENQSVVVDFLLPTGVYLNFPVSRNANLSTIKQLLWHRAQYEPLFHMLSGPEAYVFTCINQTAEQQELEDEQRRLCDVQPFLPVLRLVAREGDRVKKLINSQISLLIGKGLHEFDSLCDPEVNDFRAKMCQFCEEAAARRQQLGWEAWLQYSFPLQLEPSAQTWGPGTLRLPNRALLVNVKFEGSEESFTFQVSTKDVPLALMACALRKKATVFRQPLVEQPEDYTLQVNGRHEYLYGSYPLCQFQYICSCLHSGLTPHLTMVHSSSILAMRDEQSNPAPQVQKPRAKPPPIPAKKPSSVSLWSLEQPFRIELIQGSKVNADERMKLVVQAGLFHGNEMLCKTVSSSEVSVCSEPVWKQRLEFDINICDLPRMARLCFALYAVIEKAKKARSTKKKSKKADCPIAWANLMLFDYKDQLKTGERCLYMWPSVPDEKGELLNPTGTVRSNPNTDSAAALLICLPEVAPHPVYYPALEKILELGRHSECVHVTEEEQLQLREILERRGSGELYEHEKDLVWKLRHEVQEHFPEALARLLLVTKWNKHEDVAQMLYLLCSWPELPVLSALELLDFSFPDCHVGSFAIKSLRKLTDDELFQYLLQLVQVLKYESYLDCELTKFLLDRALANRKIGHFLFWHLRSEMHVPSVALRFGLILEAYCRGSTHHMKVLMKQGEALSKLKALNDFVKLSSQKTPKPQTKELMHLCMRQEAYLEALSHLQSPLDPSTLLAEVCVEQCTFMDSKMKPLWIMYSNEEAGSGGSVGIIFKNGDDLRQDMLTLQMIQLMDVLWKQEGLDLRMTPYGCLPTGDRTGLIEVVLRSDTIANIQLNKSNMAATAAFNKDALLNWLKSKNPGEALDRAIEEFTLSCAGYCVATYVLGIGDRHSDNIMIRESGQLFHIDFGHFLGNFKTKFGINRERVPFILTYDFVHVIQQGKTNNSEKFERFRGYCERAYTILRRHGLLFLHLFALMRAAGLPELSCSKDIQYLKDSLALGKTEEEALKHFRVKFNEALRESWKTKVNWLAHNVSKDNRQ
T4 sequence (P27986 whole entry partner): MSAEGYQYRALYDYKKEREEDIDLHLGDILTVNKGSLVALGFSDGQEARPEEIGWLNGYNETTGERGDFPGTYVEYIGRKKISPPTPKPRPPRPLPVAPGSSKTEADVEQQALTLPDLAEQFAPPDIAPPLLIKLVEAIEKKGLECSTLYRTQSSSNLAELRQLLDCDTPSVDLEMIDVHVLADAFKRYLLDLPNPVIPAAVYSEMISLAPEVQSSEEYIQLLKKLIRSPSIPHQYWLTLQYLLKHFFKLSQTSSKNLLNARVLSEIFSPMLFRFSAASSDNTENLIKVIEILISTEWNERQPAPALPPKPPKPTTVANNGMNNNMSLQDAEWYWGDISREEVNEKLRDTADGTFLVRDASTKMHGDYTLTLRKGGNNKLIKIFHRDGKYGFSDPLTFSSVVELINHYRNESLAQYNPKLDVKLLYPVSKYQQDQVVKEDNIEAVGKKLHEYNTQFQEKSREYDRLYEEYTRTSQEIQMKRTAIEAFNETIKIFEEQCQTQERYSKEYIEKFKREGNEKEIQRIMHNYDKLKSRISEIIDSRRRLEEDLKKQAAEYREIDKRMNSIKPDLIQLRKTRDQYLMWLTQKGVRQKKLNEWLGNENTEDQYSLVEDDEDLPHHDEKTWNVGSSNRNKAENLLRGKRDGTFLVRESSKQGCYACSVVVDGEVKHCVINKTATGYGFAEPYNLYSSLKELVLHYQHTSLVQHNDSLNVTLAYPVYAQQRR
Method: Detecting the inhibition capability of the compound to PI3Kα and PI3Kδ activities with Kinase-Glo (purchased from Promege Company; Catalog No.: V3771). […] The reaction system also comprises substrates as PIP2 (4, 5-diphosphoinositide, purchased from Life Technologies Company) and ATP (triphosadenine, purchased from Sigma Company). The reaction buffer system comprises 50 mM HEPES (4-hydroxyethylpiperazine ethane sulfonic acid), 3 mM MgCl2, 1 mM EGTA (ethylene glycol bis(2-amino ethylether)quadrol), 100 mM NaCl, 0.03% CHAPS (3-[3-(cholamidopropyl)dimethylamino]-1-propanesulfonic acid), 2 mM DTT (dithiothreitol). The pH value of the reaction buffer is 7.5. […] Mixing the system evenly for incubation under ambient temperature (for 1 h in PI3Kα test and for 2 h in PI3Kδ test). After incubation, adding 10 μL Kinase-Glo which has been preheated to ambient temperature into each reaction well to terminate the reaction; shaking it in dark place for 15 min after it is mixed evenly, then measuring the fluorescence intensity with a microplate reader and analyzing the result data with the software GraphPad Prism.
as §2, §3

[6] = tested on: A2780s cells (ovarian cancer); assay: Cell proliferation inhibition, A2780s (MTT); type: cell-based; details: Homo sapiens
Method: as §4, §5

[7] = tested on: hct116 cells (colon cancer); assay: Cell proliferation inhibition, hct116 (MTT); type: cell-based; details: Homo sapiens, HCT-116
Method: as §4, §5

[8] = target: T5, mTOR (Homo sapiens, UniProt P42345); assay: mTOR activity inhibition (ULight-4E-BP1 peptide); type: biochemical; details: Table 1, graded
T5 construct: purchased Millipore 14-770
Method: mTOR protein is purchased from Millipore Company (Catalog No.: 14-770). The reaction buffer system comprises 50 mM HEPES, 10 mM MgCl2, 1 mM EGTA, 3 mM […], 0.01% Tween-20 (purchased from Chengdu Kelong Chemical Regent Factory) and 2 mM DTT. The pH value of the reaction buffer is 7.5. Preparing 10 μL reaction system in corresponding wells of the 384 well plate, which contains the compositions as: the compound with designed concentration (or blank control), mTOR protein (with the concentration of 2.5 nM), ULight-4E-BP1 (containing the 37th and the 46th threonine residues, Thr37/46) peptide (purchased from PE Company, Catalog No.: TRF0128-M) and ATP substrates (ULight-4E-BP1 peptide, with the concentration of 50 nM and ATP, with the concentration of […]). Mixing it evenly for incubation under ambient temperature for 1 h; adding 10 μL testing liquid containing EDTA (ethylenediaminetetraacetic acid) and Eu-anti-phosphorylation-4E-BP1 (Thr37/46) antibody (purchased from PE Company, Catalog No.: TRF0216-M) into the reaction wells (after the testing liquid is added, the concentration of EDTA is 8 mM and the concentration of Eu-phosphorylation-4E-BP1 antibody is 2 nM); mixing it evenly and incubating it for 1 h under ambient temperature, then measuring the fluorescence intensity with a microplate reader and analyzing the result data with the software GraphPad Prism.
as §2, §3

[9] = target: T6, PI3Kα (Homo sapiens, UniProt P42336); assay: PI3Kα activity inhibition (Kinase-Glo); type: biochemical
T6 construct: purchased Invitrogen PV4788
T6 sequence (P42336 whole entry, species assumed): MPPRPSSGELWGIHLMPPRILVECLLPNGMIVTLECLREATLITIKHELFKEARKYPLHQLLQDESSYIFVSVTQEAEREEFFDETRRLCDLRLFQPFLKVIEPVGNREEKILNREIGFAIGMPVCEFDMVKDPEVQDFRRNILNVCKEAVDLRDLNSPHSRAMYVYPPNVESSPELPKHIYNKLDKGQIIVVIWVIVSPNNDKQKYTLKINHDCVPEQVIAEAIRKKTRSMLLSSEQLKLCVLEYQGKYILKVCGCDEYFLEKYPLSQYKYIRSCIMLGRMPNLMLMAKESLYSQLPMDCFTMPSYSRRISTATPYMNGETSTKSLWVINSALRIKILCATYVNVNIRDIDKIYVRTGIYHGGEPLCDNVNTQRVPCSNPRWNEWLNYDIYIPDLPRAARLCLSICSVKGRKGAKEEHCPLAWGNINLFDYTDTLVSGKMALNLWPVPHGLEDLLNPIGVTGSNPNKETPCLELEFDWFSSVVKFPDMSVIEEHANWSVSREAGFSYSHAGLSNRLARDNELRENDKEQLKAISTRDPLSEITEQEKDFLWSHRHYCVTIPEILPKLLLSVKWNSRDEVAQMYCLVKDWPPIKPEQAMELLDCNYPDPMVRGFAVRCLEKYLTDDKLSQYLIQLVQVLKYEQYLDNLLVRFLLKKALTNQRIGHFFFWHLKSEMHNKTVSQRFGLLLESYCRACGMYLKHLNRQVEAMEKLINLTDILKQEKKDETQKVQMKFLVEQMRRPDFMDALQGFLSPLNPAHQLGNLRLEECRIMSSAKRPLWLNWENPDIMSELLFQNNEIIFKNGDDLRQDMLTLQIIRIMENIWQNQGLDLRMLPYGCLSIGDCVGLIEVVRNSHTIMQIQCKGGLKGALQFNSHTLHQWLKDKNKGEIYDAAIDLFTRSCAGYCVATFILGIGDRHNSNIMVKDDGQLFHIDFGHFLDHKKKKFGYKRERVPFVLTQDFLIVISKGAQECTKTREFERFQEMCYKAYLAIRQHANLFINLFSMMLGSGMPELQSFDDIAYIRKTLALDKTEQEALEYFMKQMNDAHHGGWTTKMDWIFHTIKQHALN
T6 sequence (P27986 whole entry partner, species assumed): as the sequence (P27986 whole entry partner) above
Method in brief: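 Kinase-Glo luminescence read-out of remaining ATP after PI3K reaction with PIP2 and ATP substrates in 50 mM HEPES pH 7.5, 3 mM MgCl2, 1 mM EGTA, 100 mM NaCl, 0.03% CHAPS, 2 mM DTT. Incubated at ambient temperature, 1 h for PI3Kα, 2 h for PI3Kδ. IC50 from four-parameter fit of % inhibition versus concentration.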

[10] = tested on: human breast cancer MCF-7 subcutaneous tumor; assay: Subcutaneous tumor model, human breast cancer MCF-7; details: 30 mg/kg, once per 7 days, intraperitoneal
[11] = tested on: human breast cancer MDA-MB-231 subcutaneous tumor; assay: Subcutaneous tumor model, human breast cancer MDA-MB-231; details: 30 mg/kg, once per 7 days, intraperitoneal
Method: Cell MM1S is cultured in RPMI1640 medium (HyClone) which contains 10% fetal calf serum (Hohhot Caoyuan Lvye Bioengineering Material Co., Ltd.) and 100 U/mL penicillin and streptomycin (Beyotime).
3) Inoculation, grouping and treatment: collecting cells in logarithmic phase under aseptic conditions and counting; diluting the single cell suspension with the medium containing neither fetal calf serum nor antibiotics to 1×10^7-8 cell/mL for standby. Mixing the cell suspension; injecting 100 μL of cell suspension (5×10^6-2×10^7 cells) subcutaneously with a 1 mL injector on the right side of the back of animals. Weeding out the animals with oversized and undersized tumor when the tumor grows to an average volume of about 120 mm^3 and grouping the qualified animals for treatment and drug administration. Refer to Table 7 for each grouping model and drug administration frequency. Measuring the weight of each model per 2 days and measuring the length and width of the tumor with a vernier caliper; killing the tested animals through cervical dislocation and peeling off their tumors for weight measuring and photographing. Then calculating the tumor inhibition ratio (%) and evaluating the inhibition intensity to tumor with such tumor inhibition ratio.

[12] = 96 h incubation, read-out: Proliferation IC50, Acute myeloid leukemia MV4-11
[13] = Table 1, graded, read-out: HDAC1 IC50
[14] = read-out: inhibition value IC50 to the activity of HDAC1
[15] = 96 h incubation, read-out: Proliferation IC50, Ovarian cancer A2780s
[16] = 96 h incubation, read-out: Proliferation IC50, Colon cancer hct116
[17] = Table 1, graded, read-out: PI3Kα IC50
[18] = read-out: inhibition value IC50 to the activity of PI3Kα
[19] = read-out: IC50 to proliferation of MV4-11 cells
[20] = read-out: IC50 to proliferation of A2780s cells
[21] = read-out: IC50 to proliferation of hct116 cells

| Compound | IC50 [1] | IC50 [2] | IC50 [3, 12] | IC50 [4, 13] | IC50 [4, 14] | IC50 [5] | IC50 [6, 15] | IC50 [7, 16] | IC50 [8] | IC50 [9, 17] | IC50 [9, 18] | Death [10] | Inhibitory rate (%) [10] | Death [11] | Inhibitory rate (%) [11] | IC50 [3, 19] | IC50 [6, 20] | IC50 [7, 21] |
| --- | --- | --- | --- | --- | --- | --- | --- | --- | --- | --- | --- | --- | --- | --- | --- | --- | --- | --- |
| CN(Cc1nc2c(N3CCOCC3)nc(-c3ccc4[nH]ncc4c3)nc2n1C)c1ncc(C(=O)NO)cn1 [CLJ-15, 2-(((2-(1H-indazole-5-yl)-9-methyl-6-morpholine-9H-purine-8-yl))methyl(methyl)amino)-N-hydroxyl pyrimidine-5-formamide] | > 10000 nM | > 10000 nM | 10 to 100 nM | < 1 nM | < 1 nM | > 10000 nM | 10 to 100 nM | 10 to 100 nM | > 10000 nM | 1000 to 10000 nM |  |  |  |  |  |  |  |  |
| CCN(Cc1nc2c(N3CCOCC3)nc(-c3ccc(OC)nc3)nc2n1C)c1ncc(C(=O)NO)cn1 [CLJ-5, N-hydroxy-2-(((2-(6-methoxyl-3-pyridyl)-9-methyl-6-morpholine-9H-purine-8-yl))methyl(ethyl)amino)pyrimidine-5-formamide] | 100 to 1000 nM | 100 to 1000 nM | 100 to 1000 nM | 100 to 1000 nM | < 100 nM | 100 to 1000 nM | 100 to 1000 nM | 100 to 1000 nM | 100 to 1000 nM | < 100 nM | < 100 nM |  |  |  |  |  |  |  |
| CCCN(Cc1nc2c(N3CCOCC3)nc(-c3ccc(OC)nc3)nc2n1C)c1ncc(C(=O)NO)cn1 [CLJ-6, N-hydroxy-2-(((2-(6-methoxyl-3-pyridyl)-9-methyl-6-morpholine-9H-purine-8-yl))methyl(propyl)amino)pyrimidine-5-formamide] | > 10000 nM | > 10000 nM | > 1000 nM | 100 to 1000 nM |  | > 10000 nM | > 1000 nM | > 1000 nM | > 10000 nM | > 10000 nM |  |  |  |  |  |  |  |  |
| CC(=O)O[C@H]1C(=O)[C@@]2(C)[C@H]([C@H](OC(=O)c3ccccc3)[C@]3(O)C[C@H](OC(=O)[C@H](O)[C@@H](NC(=O)c4ccccc4)c4ccccc4)C(C)=C1C3(C)C)[C@]1(OC(C)=O)CO[C@@H]1C[C@@H]2O [Paclitaxel] |  |  |  |  |  |  |  |  |  |  |  | 0/6 | 77.73% | 0/6 | 59.19% |  |  |  |
| CN(Cc1nc2c(N3CCOCC3)nc(-c3cncnc3)nc2n1C)c1ncc(C(=O)NO)cn1 [CLJ-10, 2-(((2-(pyrimidine-5-yl)-9-methyl-6-morpholine-9H-purine-8-yl))methyl(methyl)amino)-N-hydroxyl pyrimidine-5-formamide] |  |  | 10 to 100 nM | < 100 nM |  |  | 100 to 1000 nM | 10 to 100 nM |  | < 100 nM | < 100 nM |  |  |  |  |  |  |  |
| CCCN(Cc1nc2c(N3CCOCC3)nc(-c3ccc4[nH]ncc4c3)nc2n1C)c1ncc(C(=O)NO)cn1 [CLJ-16, N-hydroxy-2-(((2-(1H-indazole-5-yl)-9-methyl-6-morpholine-9H-purine-8-yl))methyl(propyl)amino)pyrimidine-5-formamide] |  |  | > 1000 nM | 100 to 1000 nM |  |  | > 1000 nM | > 1000 nM |  | > 10000 nM |  |  |  |  |  |  |  |  |
| CN(Cc1nc2c(N3CCOCC3)nc(-c3ccc4c(c3)OCO4)nc2n1C)c1ncc(C(=O)NO)cn1 [CLJ-36, 2-(((2-(benzo[d][1,3]dioxole-5-yl)-9-methyl-6-morpholine-9H-purine-8-yl))methyl(methyl)amino)-N-hydroxyl pyrimidine-5-formamide] |  |  | 0.1 to 10 nM | < 1 nM | < 1 nM |  | 0.1 to 10 nM | 0.1 to 10 nM |  | > 10000 nM |  |  |  |  |  | 0.1 to 10 nM | 0.1 to 10 nM | 0.1 to 10 nM |
| Cc1cscc1-c1nc(N2CCOCC2)c2nc(CN(C)c3ncc(C(=O)NO)cn3)n(C)c2n1 [CLJ-23] |  |  | 0.1 to 10 nM | < 100 nM |  |  | 0.1 to 10 nM | 0.1 to 10 nM |  | > 10000 nM |  |  |  |  |  | 0.1 to 10 nM | 0.1 to 10 nM | 0.1 to 10 nM |

Reference: patent US10227347B2, “Purinyl-N-hydroxyl pyrimidine formamide derivative, preparation methods and uses thereof” (Guizhou Bailing Group Pharmaceutical CO., LTD., priority 2015, dated 2019)
